Results as given in patent publication US5653961A, “Butixocort aerosol formulations in hydrofluorocarbon propellant” (Minnesota Mining and Manufacturing Company, priority 1995, dated 1997).
≈ marks a conversion by molar mass, not a printed value.

Experiment: Solubility of butixocort propionate in propellants and propellant/ethanol blends
Type: physicochemical
Method: Solubility of butixocort propionate in P134a, P227, and blends thereof with ethanol, was determined as follows: Drug and the selected propellant system were combined and agitated for a period of seven days at a selected temperature to afford a saturated solution. The solid was filtered off and the supernatant was weighed. The propellant was removed by evaporation and the drug was reconstituted quantitatively. The concentration of the drug in the reconstituted solution was determined and from this the mount and concentration of drug dissolved in the propellant system was calculated. TABLES 1 and 2 show the average of three independent determinations.

## CCCC(=O)O[C@]1(C(=O)CSC(=O)CC)CC[C@H]2[C@@H]3CCC4=CC(=O)CC[C@]4(C)[C@H]3[C@@H](O)C[C@@]21C [Butixocort propionate, 11-beta-hydroxypregn-4-ene-3,20-dione-21-thiopropionate-17-butyrate]
HFA 134a, 20° C.
  solubility in HFA 134a: about 0.02 % by weight
HFA 227, 20° C.
  solubility in HFA 227: about 0.03 % by weight
Propellant 134a, 0% ethanol, organic solvent or mixture, 0 weight % ethanol, 20°C, Table 2, average of three determinations
  solubility at 168 h: 300 µg/mL (≈ 594 µM)
Propellant 134a, 1% ethanol, organic solvent or mixture, 1 weight % ethanol, 20°C, Table 2
  solubility at 168 h: 751 µg/mL (≈ 1490 µM)
Propellant 134a, 2.5% ethanol, organic solvent or mixture, 2.5 weight % ethanol, 20°C, Table 2
  solubility at 168 h: 1760 µg/mL (≈ 3480 µM)
Propellant 134a, 5% ethanol, organic solvent or mixture, 5 weight % ethanol, 20°C, Table 2
  solubility at 168 h: 4180 µg/mL (≈ 8280 µM)
Propellant 134a, 7.5% ethanol, organic solvent or mixture, 7.5 weight % ethanol, 20°C, Table 2
  solubility at 168 h: 6960 µg/mL (≈ 13800 µM)
Propellant 134a, 10% ethanol, organic solvent or mixture, 10 weight % ethanol, 20°C, Table 2
  solubility at 168 h: 9630 µg/mL (≈ 19100 µM)
Propellant 134a, organic solvent or mixture, 4 °C, Table 1, average of three determinations
  solubility at 168 h: 103 µg/mL (≈ 204 µM)
Propellant 134a, organic solvent or mixture, 20 °C, Table 1, average of three determinations
  solubility at 168 h: 203 µg/mL (≈ 402 µM)
Propellant 134a, organic solvent or mixture, 30 °C, Table 1, average of three determinations
  solubility at 168 h: 300 µg/mL (≈ 594 µM)
Propellant 134a, organic solvent or mixture, 40 °C, Table 1, average of three determinations
  solubility at 168 h: 319 µg/mL (≈ 632 µM)
Propellant 227, 0% ethanol, organic solvent or mixture, Propellant 227, 0 weight % ethanol, 20°C, Table 2, average of three determinations
  solubility at 168 h: 395 µg/mL (≈ 783 µM)
Propellant 227, 1% ethanol, organic solvent or mixture, Propellant 227, 1 weight % ethanol, 20°C, Table 2
  solubility at 168 h: 971 µg/mL (≈ 1920 µM)
Propellant 227, 2.5% ethanol, organic solvent or mixture, Propellant 227, 2.5 weight % ethanol, 20°C, Table 2
  solubility at 168 h: 1110 µg/mL (≈ 2210 µM)
Propellant 227, 5% ethanol, organic solvent or mixture, Propellant 227, 5 weight % ethanol, 20°C, Table 2
  solubility at 168 h: 3850 µg/mL (≈ 7630 µM)
Propellant 227, 7.5% ethanol, organic solvent or mixture, Propellant 227, 7.5 weight % ethanol, 20°C, Table 2
  solubility at 168 h: 6200 µg/mL (≈ 12300 µM)
Propellant 227, 10% ethanol, organic solvent or mixture, Propellant 227, 10 weight % ethanol, 20°C, Table 2
  solubility at 168 h: 8520 µg/mL (≈ 16900 µM)
Propellant 227, organic solvent or mixture, Propellant 227, 4 °C, Table 1, average of three determinations
  solubility at 168 h: 261 µg/mL (≈ 517 µM)
Propellant 227, organic solvent or mixture, Propellant 227, 20 °C, Table 1, average of three determinations
  solubility at 168 h: 285 µg/mL (≈ 565 µM)
Propellant 227, organic solvent or mixture, Propellant 227, 30 °C, Table 1, average of three determinations
  solubility at 168 h: 306 µg/mL (≈ 606 µM)
Propellant 227, organic solvent or mixture, Propellant 227, 40 °C, Table 1, average of three determinations
  solubility at 168 h: 317 µg/mL (≈ 628 µM)
